Values quoted from earlier work in paper PMC11923824, “Spider-derived peptide LCTx-F2 suppresses ASIC channels by occupying the acidic pocket” (The Journal of Biological Chemistry, 2025).

Assays:
rASIC3 channel = target: T1, rASIC3 channel (Rattus norvegicus, UniProt O35240)
T1 construct: expressed in transfected cells; host or cells: human embryonic kidney 293 cells
T1 sequence (O35240 1-533): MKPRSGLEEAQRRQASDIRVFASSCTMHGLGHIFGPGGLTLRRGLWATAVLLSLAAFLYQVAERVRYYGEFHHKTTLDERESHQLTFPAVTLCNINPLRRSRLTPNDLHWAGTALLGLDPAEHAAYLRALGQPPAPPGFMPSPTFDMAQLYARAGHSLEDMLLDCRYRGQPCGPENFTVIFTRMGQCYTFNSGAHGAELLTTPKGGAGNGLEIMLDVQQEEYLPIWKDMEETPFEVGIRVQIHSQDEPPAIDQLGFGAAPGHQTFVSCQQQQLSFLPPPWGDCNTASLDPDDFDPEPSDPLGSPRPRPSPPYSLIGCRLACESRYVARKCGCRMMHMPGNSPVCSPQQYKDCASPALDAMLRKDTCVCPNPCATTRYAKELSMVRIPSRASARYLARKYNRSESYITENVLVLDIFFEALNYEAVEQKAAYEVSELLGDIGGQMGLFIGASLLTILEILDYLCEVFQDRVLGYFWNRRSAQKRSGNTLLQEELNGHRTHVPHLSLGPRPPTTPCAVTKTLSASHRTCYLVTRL
From the text: Venom serves as a crucial weapon for animals in hunting prey and defending against enemies. Spider venom contains a variety of peptide toxins, some of which induce pain by targeting different ion channels ([29], [30], [31]), whereas others have analgesic properties and block the pain pathway ([32], [33], [34]). […] Derived from the spider Lycosa singoriensis, LCTx-F2 enhances ... || ASICs play a crucial role in pain perception among mammals ([39], [40]). Some animal toxins that are involved in prey capture and defense mechanisms act on ASICs ([26], [41]). For instance, the venom from Micrurus tener tener causes intense and persistent pain by enhancing the activation of ASICs through the MitTx toxin ([27]). ASICs are also considered important targets for pain relief, and certain chemicals that block their activity have shown strong analgesic effects in tests with living organisms ([42], [43]).

human ASIC3 channel = system: human ASIC3 channel
From the text: ASICs play a crucial role in pain perception among mammals ([39], [40]). Some animal toxins that are involved in prey capture and defense mechanisms act on ASICs ([26], [41]). For instance, the venom from Micrurus tener tener causes intense and persistent pain by enhancing the activation of ASICs through the MitTx toxin ([27]). ASICs are also considered important targets for pain relief, and certain chemicals that block their activity have shown strong analgesic effects in tests with living organisms ([42], [43]).

[1] = system: ASICs in dorsal root ganglion neurons; conditions: no reference given
From the text: (§1) ASIC channels, particularly ASIC1a and ASIC3, are affected by certain cations like Ca^2+ and Zn^2+, which provides valuable insights for the development of novel drugs targeting ASICs. […] Depletion of insulin leads to an increase in ASIC1a channel expression in Chinese hamster ovary cells and neurons.

neuron = conditions: no reference given
From the text: as §1

ASICs = conditions: no reference given
From the text: as §1

humans = conditions: no reference given
From the text: as §1

ischemic stroke = system: ischemic stroke
From the text: as §1

ASIC1a channel = system: ASIC1a channel
From the text: ASIC channels, particularly ASIC1a and ASIC3, are affected by certain cations like Ca^2+ and Zn^2+, which provides valuable insights for the development of novel drugs targeting ASICs. […] Depletion of insulin leads to an increase in ASIC1a channel expression in Chinese hamster ovary cells and neurons. […] Spider venom contains a variety of peptide toxins, some of which induce pain by targeting different ion channels ([29], [30], [31]), whereas others have analgesic properties and block the pain pathway ([32], [33], [34]). […] Derived from the spider Lycosa singoriensis, LCTx-F2 enhances ...

rASIC2a channel = system: rASIC2a channel
From the text: Venom serves as a crucial weapon for animals in hunting prey and defending against enemies. Spider venom contains a variety of peptide toxins, some of which induce pain by targeting different ion channels ([29], [30], [31]), whereas others have analgesic properties and block the pain pathway ([32], [33], [34]). […] Derived from the spider Lycosa singoriensis, LCTx-F2 enhances ...

hASIC1a channel = conditions: interacts with helix α5 of the thumb domain
ASIC3 channel = conditions: nonproton ligand
From the text: as §1

[2] = system: ASIC1a channel in Xenopus oocytes; conditions: no reference given
From the text: as §1

APETx2
effect on rASIC3 (in words) (rASIC3 channel): inhibit both rASIC3 and hASIC3 channels | inhibition of hASIC3 (in words) (human ASIC3 channel): inhibit both rASIC3 and hASIC3 channels | IC50 (human ASIC3 channel; read-out: IC50 against human ASIC3 channel): 175 nM

nerve growth factor: proinflammatory mediator
effect on ASIC expression [1]: increase the expression of ASICs

N=C(N)NC(=O)c1nc(Cl)c(N)nc1N [Amiloride]
protection against acidosis-induced neuron damage (neuron): provides protection against acidosis-induced neuron damage | effect on ASICs, amiloride (ASICs): can suppress most ASICs | analgesic effect in humans (humans): has shown analgesic effects in humans

PcTx1
neuroprotection in ischemic stroke (ischemic stroke): exhibits neuroprotection | effect on ASIC1a (in words) (ASIC1a channel): selectively inhibit the ASIC1a channel | site of action on ASIC1a (ASIC1a channel): inserts into the acidic pocket of ASIC1a channels | effect on rASIC2a (in words) (rASIC2a channel): not the rASIC2a or rASIC3 channels

bradykinin: proinflammatory mediator (RPPGFSPFR; Bradykinin; UniProt P01042 381-389, looked up)
effect on ASIC expression [1]: increase the expression of ASICs

mambalgin-1: snake toxin mambalgin-1 (LKCYQHGKVVTCHRDMKFCYHNTGMPFRNLKLILQGCSSSCSETENNKCCSTDRCNK; UniProt P0DKR6 22-78, looked up)
effect on proton sensitivity of hASIC1a (hASIC1a channel): reduces the proton sensitivity

Cc1nc(NC(=N)N)nc2ccccc12 [2-guanidine-4-methylquinazoline]
activation of ASIC3 (ASIC3 channel): activated

B1: matriptase: protease cleaving ASIC1a (protein, UniProt Q9Y5Y6 1-855, looked up)
Suppressor of tumorigenicity …: MGSDRARKGGGGPKDFGAGLKYNSRHEKVNGLEEGVEFLPVNNVKKVEKHGPGRWVVLAAVLIGLLLVLLGIGFLVWHLQYRDVRVQKVFNGYMRITNENFVDAYENSNSTEFVSLASKVKDALKLLYSGVPFLGPYHKESAVTAFSEGSVIAYYWSEFSIPQHLVEEAERVMAEERVVMLPPRARSLKSFVVTSVVAFPTDSKTVQRTQDNSCSFGLHARGVELMRFTTPGFPDSPYPAHARCQWALRGDADSVLSLTFRSFDLASCDERGSDLVTVYNTLSPMEPHALVQLCGTYPPSYNLTFHSSQNVLLITLITNTERRHPGFEATFFQLPRMSSCGGRLRKAQGTFNSPYYPGHYPPNIDCTWNIEVPNNQHVKVRFKFFYLLEPGVPAGTCPKDYVEINGEKYCGERSQFVVTSNSNKITVRFHSDQSYTDTGFLAEYLSYDSSDPCPGQFTCRTGRCIRKELRCDGWADCTDHSDELNCSCDAGHQFTCKNKFCKPLFWVCDSVNDCGDNSDEQGCSCPAQTFRCSNGKCLSKSQQCNGKDDCGDGSDEASCPKVNVVTCTKHTYRCLNGLCLSKGNPECDGKEDCSDGSDEKDCDCGLRSFTRQARVVGGTDADEGEWPWQVSLHALGQGHICGASLISPNWLVSAAHCYIDDRGFRYSDPTQWTAFLGLHDQSQRSAPGVQERRLKRIISHPFFNDFTFDYDIALLELEKPAEYSSMVRPICLPDASHVFPAGKAIWVTGWGHTQYGGTGALILQKGEIRVINQTTCENLLPQQITPRMMCVGFLSGGVDSCQGDSGGPLSSVEADGRIFQAGVVSWGDGCAQRNKPGVYTRLPLFRDWIKENTGV
effect of cleavage on ASIC1a current [2]: reduces its current
